Measurements: publication PMC5465257, “Evaluation of JNJ-54717793 a Novel Brain Penetrant Selective Orexin 1 Receptor Antagonist in Two Rat Models of Panic Attack Provocation” (Frontiers in Pharmacology, 2017)

How the values were obtained:
wild-type mice = assay: Sleep recording (EEG/EMG) in wild-type mice; format: in vivo, mouse
Protocol: Sleep experiments were conducted in male Sprague-Dawley rats (350–450 g, Harlan Laboratories, Livermore, CA, United States) and in male C57Bl6 OX2R knockout (KO) and corresponding wild-type mice (30–35 g, Charles River Laboratories, San Diego, CA, United States) as described previously ([Dugovic et al., 2009]). Animals were chronically implanted with telemetric devices (Data Sciences International, St. Paul, MN, United States) for the recording of electroencephalogram (EEG) and electromyogram (EMG) signals. Polysomnographic waveforms were analyzed per 10-s epoch and classified as wake, non-rapid eye movement (NREM) or REM sleep by using the computer software program SleepSign (Kissei Comtec, Nagano, Japan). For each experiment, EEG and EMG signals were recorded for up to 6 h after administration of the tested compounds. Analysis of sleep parameters included latency to NREM sleep (defined as the time interval to the first six consecutive NREM epochs) and REM sleep (the first two consecutive REM epochs post-treatment), and the duration of NREM and REM.
Results were averaged and expressed as mean ± SEM in defined time intervals. To determine whether differences were significant at a given interval, either paired Student’s t-test or two-way analysis of variance (ANOVA) (interaction time × treatment), repeated measures followed by Bonferroni post hoc test was performed.
In the present study, the in vivo functional target engagement was investigated in a model of permanent inhibition of OX2R, and the effects of JNJ-5471773 on sleep-wake states were examined in mice lacking the OX2R relative to their corresponding wild-type mice. […] NREM sleep latency and duration were not affected in both genotypes (not shown).

human OX1R [1] = target: T1, human OX1R (Homo sapiens, UniProt O43613); assay: Human OX1R competitive radioligand binding ([3H]SB-674042); set-up: expressed in transfected cells; host or cells: clonal CHO-K1 cells
T1 sequence (O43613 1-425): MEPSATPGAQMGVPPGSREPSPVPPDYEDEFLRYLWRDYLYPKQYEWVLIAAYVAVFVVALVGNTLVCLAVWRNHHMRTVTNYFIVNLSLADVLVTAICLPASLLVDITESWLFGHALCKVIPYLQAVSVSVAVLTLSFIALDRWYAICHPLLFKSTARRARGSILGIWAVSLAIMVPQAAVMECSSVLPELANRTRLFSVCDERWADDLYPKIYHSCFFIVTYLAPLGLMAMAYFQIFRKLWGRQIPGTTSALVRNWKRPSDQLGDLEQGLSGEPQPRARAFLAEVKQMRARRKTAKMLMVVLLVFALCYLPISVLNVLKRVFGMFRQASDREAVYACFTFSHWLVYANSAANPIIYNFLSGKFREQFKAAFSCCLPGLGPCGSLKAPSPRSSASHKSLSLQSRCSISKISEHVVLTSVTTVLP
Protocol: Human or rat OX1R binding was measured in competitive radioligand binding assays using [^3H]SB-674042 (1-(5-(2-fluoro-phenyl)-2-methyl-thiazol-4-yl)-1-((S)-2-(5-phenyl-(1,3,4)oxadiazol-2-ylmethyl)-pyrrolidin-l-yl)-methanone) as a tracer (4 nM, specific activity 35 Ci/mmol) as previously described ([Langmead et al., 2004]). Cell membranes were prepared from clonal CHO K1 cells transfected with the human OX1R or clonal HEK-293 cells transfected with the rat OX1R. Dilutions of test compounds were made in Dulbecco’s PBS from 10 mM stocks dissolved in dimethyl sulfoxide. After a 60 min incubation at room temperature, binding reactions were filtered. The membranes were counted in a scintillation counter. Non-specific binding was determined in the presence of 10 μM almorexant. Affinities of compounds for the human OX2R were measured by competitive radioligand binding using tritiated N-ethyl-2-[(6-methoxy-pyridin-3-yl)-(toluene-2-sulfonyl)-amino]-N-pyridin-3-ylmethyl-acetamide (EMPA) (2 nM, specific activity 27 Ci/mmol) ([Malherbe et al., 2009]). Cell membranes were prepared from a stable pool of HEK-293 cells transfected with the human OX2R. Non-specific binding was determined with 10 μM almorexant.
The Ki of the test compounds was calculated based on non-linear regression (one site competition) using Graphpad Prism. […]

rat OX1R = target: T2, rat OX1R (Rattus norvegicus, UniProt P56718); assay: Calcium mobilization functional assay, HEK-293 cells, OX-A EC80
T2 sequence (P56718 1-416): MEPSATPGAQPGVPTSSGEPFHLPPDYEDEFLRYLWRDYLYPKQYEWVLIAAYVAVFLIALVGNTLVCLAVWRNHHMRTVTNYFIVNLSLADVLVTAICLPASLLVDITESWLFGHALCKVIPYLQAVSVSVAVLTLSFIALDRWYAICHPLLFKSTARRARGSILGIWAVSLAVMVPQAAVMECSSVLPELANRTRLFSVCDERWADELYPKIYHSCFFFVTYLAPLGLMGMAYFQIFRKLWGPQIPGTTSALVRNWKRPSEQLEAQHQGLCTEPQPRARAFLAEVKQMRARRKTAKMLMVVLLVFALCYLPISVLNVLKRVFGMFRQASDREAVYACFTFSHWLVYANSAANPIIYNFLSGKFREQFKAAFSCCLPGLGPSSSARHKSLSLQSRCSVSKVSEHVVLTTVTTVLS
Protocol: (§1) Stably transfected CHO-K1 cells for the human OX1R or HEK-293 cells for the rat OX1R were used for the in vitro functional assays. […] Since the intracellular calcium response is transient and not consistent with equilibrium assumptions, the assays were performed by giving a standard, EC80 dose of the OX agonist and calculating a pKB from inhibition of the agonist response by a dose range of the antagonists. The cells were plated in black 96 well tissue culture plates with clear bottoms at 50,000 cells/well and grown overnight at 37°C in 5% carbon dioxide (CO2). […] The cell plate was then transferred to the Molecular Devices Fluorometric Imaging Plate Reader (FLIPR) Tetra instrument, which adds the OX agonist and monitors changes in fluorescence which reflect intracellular calcium levels.
(§2) Results were calculated using GraphPad Prism (San Diego, CA, United States) software. Raw data from the FLIPR Tetra was exported as the difference between maximum and minimum fluorescence observed for each well. A non-linear regression was used to determine the agonist EC50 and antagonist IC50 for each plate, then the antagonist KB was calculated according to Cheng and Prusoff ([Cheng and Prusoff, 1973]).

human OX1R [2] = target: T1, human OX1R; assay: Calcium mobilization functional assay, CHO-K1 cells, OX-A EC80
Protocol: as §1, §2

## O=C(c1cccc(F)c1-c1ncccn1)N1[C@@H]2CC[C@H]1[C@H](Nc1cnc(C(F)(F)F)cn1)C2 [JNJ-54717793, (1S,2R,4R)-7-([(3-fluoro-2-pyrimidin-2-ylphenyl)carbonyl]-N-[5-(trifluoromethyl)pyrazin-2-yl]-7-azabicyclo[2.2.1]heptan-2-amine)]
wild-type mice; 30 mg/kg oral
  REM sleep duration: did not alter
  REM sleep latency: slightly reduced
wild-type mice; 30 mg/kg oral (not shown)
  NREM sleep latency and duration: not affected
Human OX1R [1]
  Ki: 14.8 nM
Human OX1R [1]; hOX1R versus hOX2R
  binding selectivity at the human OX1R compared to the human OX2R: 50 fold
Rat OX1R
  Kb: 35.5 nM
Human OX1R [2]
  Kb: 16.6 nM
